Read-outs that look alike come from different tables or passages of the source.
Key:
[1] = system: Stage 5 gametocytes from P. falciparum NF54; assay: Late-stage (stage V) gametocyte survival assay, MitoTracker; format: cell-based, Plasmodium falciparum; settings: for EC50: Plasmodium falciparum, read-out: Stage 5 Gametocyte EC50; for EC50 fold shift compared to asexual stage: Stage 5 Gametocyte EC50: gametocyte EC50 / 3D7 EC50
Description: The second assay was a late-stage (stage V) gametocyte survival assay, which predicts transmission-blocking activity. […] Positive and negative control compounds included puromycin (0.61±0.11 μM) and atovaquone (> 12.50 μM), respectively.
To test sexual-stage activity, compounds were tested against late-stage gametocytes using a MitoTracker fluorescent-based assay. Specifically, synchronized stage V gametocytes were incubated with compound for 72 h. MitoTracker Red CMXRos (Life Technologies) was added to each well (final concentration: 500 nM) together with saponin to lyse the RBCs. Each plate was then imaged with an Operetta High Content Imaging System (Perkin Elmer) for fluorescence (590–640 nm). Varying levels of compound concentration were used (1.25 μM or 12.5 μM) due to the stock concentration supplied.
The gametocytocidal activity was measured using high-content image analysis software (Harmony, Perkin Elmer). The readout was based on number of metabolically active gametocytes per well.

P. falciparum strain 3D7 = assay: Asexual blood stage 3H-hypoxanthine incorporation assay, 3D7; format: cell-based, Plasmodium falciparum
Description: (§1) The 48-h assay was carried out in a 96-well format following standard methods using the ^3H-hypoxanthine incorporation assay. The raw EC50 values corresponding to this assay can be found in Supplementary Data 3. Briefly, this assay relies on the parasite incorporation of labelled hypoxanthine that is proportional to P. falciparum growth. A culture of parasitized RBCs (0.5% parasitemia with a percentage of ring stage higher than 70% of total parasitemia, 2.0% haematocrit) in RPMI-1640, […] and 5 μM hypoxanthine was exposed to drug serial dilutions. Plates were incubated for 24 h at 37 °C, 5% CO2, 5% O2 and 90% N2. After 24 h of incubation, ^3H-hypoxanthine was added and plates were incubated for an additional 24-h period. After that, parasites were harvested on a glass fibre filter using a TOMTEC Cell Harvester 96. Filters were dried and melt-on scintillator sheets were used to determine the incorporation of ^3H-hypoxanthine. Radioactivity was measured using a microbeta counter. Data were normalized using the incorporation of the positive (parasitized RBCs without drug) and negative (same culture with artesunate at 2 μM) controls. All assays were conducted in triplicate using three independently grown cultures, and EC50 values were determined using the XLfit add-in module for Excel (version 2.3.1) from Grafit (version 5.3.1.3), where parameter h is the assay hill slope, x is the compound concentration and y is the inhibition of growth effect. The XLfit equation is: […]

3D7 = assay: Cross-resistance EC50 assay, 3D7 parent / sensitive strain; format: cell-based; settings: Plasmodium falciparum
Source text: Multidrug resistance alleles, including mutations in P. falciparum chloroquine resistance transporter (pfcrt) and P. falciparum multi-drug resistance transporter 1 (pfmdr1) are very common in field isolates. Therefore, we sought to assess the degree to which pre-existing resistance alleles would contribute to a loss of potency for this diverse collection of small molecule compounds. Fifteen clones derived from three main parent lines were chosen to maximize diversity in mutated pathways and genetic backgrounds, thus representing the variety of resistance seen in the field: 3D7 (ref. [23]), W2 (ref. [24]) or Dd2 (ref. [25]). The 3D7 line originates from the clone of a Netherlands clinical isolate strain[23][26] and is generally considered to be drug sensitive, though it does convey resistance to sulfadoxine. Conversely, W2 (ref. [24], [27]) and Dd2 (ref. [25]) are multi-drug-resistant lines originating from the Indochina III/CDC isolate, which contain point mutations in pfcrt as well as amplifications in pfmdr1 and GTP cyclohydrolase.
To evaluate potential overlapping activity against known antimalarial drug targets, we performed dose-response studies with each compound against our assembled set of drug-resistant lines and their corresponding parents, in an asexual blood stage proliferation assay (Table 1). Comparisons were made to the drug-sensitive strain 3D7 when a parent was unavailable (TM90C2A, W2 and Dd2). As laboratories conducted EC50 assays with different strains and protocols, all comparisons were made between assays from the same laboratory and under the same assay conditions. Compounds displaying >5-fold EC50 shifts relative to the parent or sensitive strain were flagged as having potentially non-novel targets. Average fold shifts per strain ranged from 0.82 to 2.34, with a median of 1.23 indicating there was not common resistance to any one resistant clone. No resistance patterns were observed when classifying the compounds based on chemical structure, but this was not surprising given the diversity of compounds chosen. On the other hand, given that these confirmed compounds were derived from larger unconfirmed hit lists to which some filtration criteria may have been applied (for example, elimination of obvious dihydrofolate reductase inhibitors[32]), some[10][11][12][13] pre-existing bias may exist in the set.
as §1
Alternatively, a SYBR Green-based proliferation approach was used for the 72-h assay, as previously described. […]

[2] = Plasmodium falciparum, 3D7, asexual stage, P. falciparum 3D7, read-out: 3D7 EC50
[3] = SYBR green 72 hour assay, asynchronized parasites, 96-well or 1536-well format, 3D7 parent, read-out: 3D7 (PARENT) EC50 (µM) Average EC50
[4] = SYBR green 72 hour assay, synchronized parasites, 384-well format, strain 3D7 (parent), read-out: 3D7 (PARENT) Average EC50
[5] = hypoxanthine 48-hour assay, synchronized parasites, 96-well format, strain 3D7 (parent), read-out: 3D7 (PARENT) Average EC50
[6] = hypoxanthine 48-hour assay, synchronized parasites, 96-well format, strain 3D7-C9-WT (parent of PfATP4 Mut3), read-out: 3D7-C9-WT (PARENT) Average EC50
[7] = SYBR green 72 hour assay, synchronized parasites, 384-well format, 3D7 parent, read-out: 3D7 (PARENT) Average EC50

SMILES | EC50 ([1]; P. falciparum NF54, 72 h) [nM] | EC50 fold shift compared to asexual stage: Stage 5 Gametocyte EC50 [1] | EC50 (P. falciparum strain 3D7; [2]) [nM] | EC50 (3D7; [3]) [µM] | EC50 (3D7; [4]) [µM] | EC50 (3D7; [5]) [µM] | EC50 (3D7; [6]) [µM] | EC50 ([1]; NF54, 72 h) [nM] | EC50 (P. falciparum strain 3D7; Plasmodium falciparum, 3D7, read-out: 3D7 EC50) [nM] | EC50 (3D7; 3D7, 48 h, read-out: 3D7 (PARENT) Average EC50) [µM] | EC50 (3D7; 3D7, 48 h, read-out: 3D7-C9-WT (PARENT) Average EC50) [µM] | EC50 (3D7; 3D7, 72 h, read-out: 3D7 (PARENT) Average EC50) [µM] | EC50 (3D7; 3D7, 72 h, read-out: 3D7 (PARENT) EC50 (µM) Average EC50) [µM] | EC50 (3D7; [7]) [µM] | EC50 (P. falciparum strain 3D7; asexual stage, P. falciparum 3D7, read-out: 3D7 EC50) [nM]
COc1ccc(C(=O)C2CC2c2ccc(Cl)cc2)cc1 (stereo not drawn) [MMV665924] | > 1250 | > 1.5 | 820 | 2.46 | 0.976 | 0.824 | 0.487 |  |  |  |  |  |  |  | 
O=C(Nc1ccc(Cl)c(Cl)c1)Nc1ccc(Cl)c(Cl)c1 [MMV665852] | > 1250 |  | 1170 | 1.55 | 1.16 | 1.24 |  |  |  |  |  |  |  |  | 
Cl.c1ccc2c(NCCCCCCNc3c4c(nc5ccccc35)CCCC4)c3c(nc2c1)CCCC3 [MMV019555] |  |  |  |  |  |  |  | 451 | 87.3 | 0.087 | 0.094 | 0.062 | 0.065 |  | 
COc1ccc(NC(=O)N2CCCCN3[C@H](CN)[C@H](c4ccc(C#Cc5ccccc5)cc4)[C@@H]3C2)cc1 [BRD1095] | 259 | 6.48 | 40 | 0.00215 |  |  |  |  |  |  |  |  |  | 0.022 | 
Cc1ccc(S(=O)(=O)n2cc(-c3ccnc(N)c3)c3cc(Br)cnc32)cc1 [MMV024114] | > 12500 | > 47 | 265 | 1.17 | 0.418 | 0.264 | 0.219 |  |  |  |  |  |  |  | 
CNCc1ccc2nc(-c3coc(Cc4cc(Cl)ccc4OCC(C)C)n3)[nH]c2c1.Cl.Cl [MMV026596] | 6350 | 18.35 | 346 | 0.304 | 0.321 | 0.377 | 0.472 |  |  |  |  |  |  |  | 
Cc1cc(Nc2ccc(OCc3ccccc3)cc2)nc2cc(O)ccc12 [MMV007181] | 805 | 2.33 | 346 | 0.086 | 0.15 | 0.343 | 0.183 |  |  |  |  |  |  |  | 
OC(CNC1CCCCC1)Cn1c2ccccc2c2ccccc21 (stereo not drawn) [MMV009063] | > 1250 | > 1.5 | 790 | 0.281 | 0.464 | 0.785 |  |  |  |  |  |  |  |  | 
O=C(NC(c1ccccc1)c1ccc2cccnc2c1O)c1ccccc1 (stereo not drawn) [MMV666080] | 7210 | 8.53 | 845 | 0.723 | 0.682 | 0.845 | 3.92 |  |  |  |  |  |  |  | 
CN(C)CCCNCc1ccc(-c2ccc(Cl)c(Cl)c2)o1 [MMV673964] | 1130 | 1.86 | 607 | 0.068 |  | 0.633 | 0.575 |  |  |  |  |  |  | 0.29 | 
COc1ccccc1CNC(=O)CCn1c(=O)[nH]c2ccsc2c1=O [MMV019066] | > 1250 | > 0.7 | 1670 | 0.007 | 0.168 | 1.67 | 2.17 |  |  |  |  |  |  |  | 1670

Reference: PMC4912613, “A broad analysis of resistance development in the malaria parasite” (Nature Communications, 2016)
